The values below are quoted from earlier work in patent publication US20180214412A1, “IMMEDIATE RELEASE CANNABINOID FORMULATIONS” (CannTab Therapeutics Limited, priority 2017, published 2018).

For this data set the following is noted: after administration.

Consider `CCCCCc1cc(O)c2c(c1)OC(C)(C)[C@@H]1CCC(C)=C[C@@H]21` [Dronabinol, (−)-trans-Δ9-tetrahydrocannabinol], for which the “duration of appetite stimulant effect” value is not below 24 h.
